# Molecular target: T1, LXRβ (Homo sapiens, UniProt P55055)
# T1 construct: Co-transfection expression plasmids, comprising full-length LXRα (pCMX-h LXRα[…] or LXRβ (pCMX-hLXRβ)); expressed in transfected cells; host or cells: CV-1 African Green Monkey Kidney Cells
# T1 sequence (P55055 1-460): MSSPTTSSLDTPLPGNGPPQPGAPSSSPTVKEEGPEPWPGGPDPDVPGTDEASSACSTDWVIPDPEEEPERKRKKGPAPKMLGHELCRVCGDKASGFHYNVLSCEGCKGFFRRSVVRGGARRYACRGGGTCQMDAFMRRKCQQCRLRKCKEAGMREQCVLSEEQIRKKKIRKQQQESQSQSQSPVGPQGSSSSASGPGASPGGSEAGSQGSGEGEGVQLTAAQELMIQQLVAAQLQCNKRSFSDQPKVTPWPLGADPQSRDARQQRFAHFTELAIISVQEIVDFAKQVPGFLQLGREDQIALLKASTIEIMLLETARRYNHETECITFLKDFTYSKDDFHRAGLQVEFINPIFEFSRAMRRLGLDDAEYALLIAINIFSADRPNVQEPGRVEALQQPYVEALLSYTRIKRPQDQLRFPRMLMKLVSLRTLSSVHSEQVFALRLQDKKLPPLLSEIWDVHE
# T1 sequence (P19793 1-462 partner): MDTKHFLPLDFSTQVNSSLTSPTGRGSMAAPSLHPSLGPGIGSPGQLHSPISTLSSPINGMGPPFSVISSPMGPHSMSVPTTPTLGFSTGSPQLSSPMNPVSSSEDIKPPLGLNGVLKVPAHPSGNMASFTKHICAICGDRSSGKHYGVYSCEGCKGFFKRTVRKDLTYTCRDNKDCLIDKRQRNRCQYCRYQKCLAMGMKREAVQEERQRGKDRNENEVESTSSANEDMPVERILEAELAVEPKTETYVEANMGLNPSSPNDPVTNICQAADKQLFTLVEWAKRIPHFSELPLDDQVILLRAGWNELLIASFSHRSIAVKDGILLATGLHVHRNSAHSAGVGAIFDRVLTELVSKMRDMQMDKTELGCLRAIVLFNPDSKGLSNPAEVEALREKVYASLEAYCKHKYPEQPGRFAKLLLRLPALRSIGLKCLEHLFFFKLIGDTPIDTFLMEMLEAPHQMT
# Test: Co-transfection assay (LXRE luciferase reporter), LXRβ
# Type: cell-based
# Details: for EC50: CV-1 cells transfected with pCMX-hLXRβ and LXREx1-Tk-Luciferase, 20 hours incubation; for Emax: LXRβ co-transfection, relative to high control 1-(2,4-difluorobenzyl)-2-oxo-6-(4-phenoxyphenyl)-4-(trifluoromethyl)-1,2-dihydropyridine-3-carbonitrile, read-out: % Efficacy
# How it was run: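 CV-1 cells transiently co-transfected with full-length human LXRβ expression plasmid, LXREx1-Tk-luciferase reporter and β-galactosidase control, then exposed to compound for 20 h at 37 °C. Luciferase luminescence read; EC50 from 11-point, ½-log dose–response fit, efficacy relative to high-control agonist maximum.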
SMILES,EC50 [nM],Emax [%]
"Cc1nc(-c2cc(-c3cc(F)c(CO)c(S(C)(=O)=O)c3)ccc2-n2cc(C(F)(F)F)nc2C)c(-c2cccnc2C)o1 [Example 395, (3-fluoro-4′-(2-methyl-4-(trifluoromethyl)-1H-imidazol-1-yl)-3′-(2-methyl-5-(2-methylpyridin-3-yl)oxazol-4-yl)-5-(methylsulfonyl)biphenyl-4-yl)methanol]",1230,61
"Cc1nc(-c2cc(-c3cccc(S(C)(=O)=O)c3)ccc2-n2cc(C(F)(F)F)nc2C)c(-c2ccc(OC(F)F)cc2Cl)o1 [Example 396, 5-(2-chloro-4-(difluoromethoxy)phenyl)-2-methyl-4-(4-(2-methyl-4-(trifluoromethyl)-1H-imidazol-1-yl)-3′-(methylsulfonyl)biphenyl-3-yl)oxazole]",34,71
"Cc1nc(-c2cc(-c3cc(F)c(CO)c(S(C)(=O)=O)c3)ccc2-n2cc(C(F)(F)F)nc2C)c(-c2ccc(OC(F)F)c(Cl)c2)o1 [Example 399, (3′-(5-(3-chloro-4-(difluoromethoxy)phenyl)-2-methyloxazol-4-yl)-3-fluoro-4′-(2-methyl-4-(trifluoromethyl)-1H-imidazol-1-yl)-5-(methylsulfonyl)biphenyl-4-yl)methanol]",28,76
COc1ncc(F)cc1-c1oc(C)nc1-c1cc(-c2cccc(S(C)(=O)=O)c2)ccc1-n1cc(C(F)(F)F)nc1C [Example 400],1160,55
"Cc1nc(-c2cc(-c3ccc(CO)c(S(C)(=O)=O)c3)ccc2-n2cc(C(F)(F)F)nc2C)c(-c2ccc(OC(F)F)c(F)c2)o1 [Example 402, (3′-(5-(4-(difluoromethoxy)-3-fluorophenyl)-2-methyloxazol-4-yl)-4′-(2-methyl-4-(trifluoromethyl)-1H-imidazol-1-yl)-3-(methylsulfonyl)biphenyl-4-yl)methanol]",43,88
"Cc1nc(-c2cc(-c3cc(F)c(CO)c(S(C)(=O)=O)c3)ccc2-n2cc(C(F)(F)F)nc2C)c(-c2ccc(OC(CF)CF)c(F)c2)o1 [Example 407, (3′-(5-(4-(1,3-difluoropropan-2-yloxy)-3-fluorophenyl)-2-methyloxazol-4-yl)-3-fluoro-4′-(2-methyl-4-(trifluoromethyl)-1H-imidazol-1-yl)-5-(methylsulfonyl)biphenyl-4-yl)methanol]",118,70
"Cc1nc(-c2cc(-c3cccc(S(C)(=O)=O)c3)ccc2-n2cc(C(F)(F)F)nc2C)c(-c2ccc(OC3CCCCC3)nc2)o1 [Example 408, 5-(6-(cyclohexyloxy)pyridin-3-yl)-2-methyl-4-(4-(2-methyl-4-(trifluoromethyl)-1H-imidazol-1-yl)-3′-(methylsulfonyl)biphenyl-3-yl)oxazole]",332,55
"Cc1nc(-c2cc(-c3cc(F)c(CO)c(S(C)(=O)=O)c3)ccc2-n2cc(C(F)(F)F)nc2C)c(-c2ccc(OC3CCCCC3)nc2)o1 [Example 409, (3′-(5-(6-(cyclohexyloxy)pyridin-3-yl)-2-methyloxazol-4-yl)-3-fluoro-4′-(2-methyl-4-(trifluoromethyl)-1H-imidazol-1-yl)-5-(methylsulfonyl)biphenyl-4-yl)methanol]",130,45
"Cc1nc(-c2cc(-c3cccc(S(C)(=O)=O)c3)ccc2-n2cc(C(F)(F)F)nc2C)c(-c2ccc(OC3CCCC3)nc2)o1 [Example 410, 5-(6-(cyclopentyloxy)pyridin-3-yl)-2-methyl-4-(4-(2-methyl-4-(trifluoromethyl)-1H-imidazol-1-yl)-3′-(methylsulfonyl)biphenyl-3-yl)oxazole]",204,49
"Cc1nc(-c2cc(-c3cc(F)c(CO)c(S(C)(=O)=O)c3)ccc2-n2cc(C(F)(F)F)nc2C)c(-c2ccc(OC3CCCC3)nc2)o1 [Example 411, (3′-(5-(6-(cyclopentyloxy)pyridin-3-yl)-2-methyloxazol-4-yl)-3-fluoro-4′-(2-methyl-4-(trifluoromethyl)-1H-imidazol-1-yl)-5-(methylsulfonyl)biphenyl-4-yl)methanol]",255,60
"COc1cnc(-c2oc(C)nc2-c2cc(-c3cccc(S(C)(=O)=O)c3)ccc2-n2cc(C(F)(F)F)nc2C)cn1 [Example 412, 5-(5-methoxypyrazin-2-yl)-2-methyl-4-(4-(2-methyl-4-(trifluoromethyl)-1H-imidazol-1-yl)-3′-(methylsulfonyl)biphenyl-3-yl)oxazole]",518,72

# Further compounds by falling EC50, results first:
EC50 [nM],Emax [%],SMILES
272,60,"COc1ncc(F)cc1-c1oc(C)nc1-c1cc(-c2cc(F)c(CO)c(S(C)(=O)=O)c2)ccc1-n1cc(C(F)(F)F)nc1C [Example 401, (3-fluoro-3′-(5-(5-fluoro-2-methoxypyridin-3-yl)-2-methyloxazol-4-yl)-4′-(2-methyl-4-(trifluoromethyl)-1H-imidazol-1-yl)-5-(methylsulfonyl)biphenyl-4-yl)methanol]"
181,68,"Cc1nc(-c2cc(-c3cccc(S(C)(=O)=O)c3)ccc2-n2cc(C(F)(F)F)nc2C)c(-c2ccc(OC(CF)CF)c(F)c2)o1 [Example 406, 5-(4-(1,3-difluoropropan-2-yloxy)-3-fluorophenyl)-2-methyl-4-(4-(2-methyl-4-(trifluoromethyl)-1H-imidazol-1-yl)-3′-(methylsulfonyl)biphenyl-3-yl)oxazole]"
159,69,"Cc1nc(-c2cc(-c3cccc(S(C)(=O)=O)c3)ccc2-n2cc(C(F)(F)F)nc2C)c(-c2ccc(OCC3CC3)c(F)c2)o1 [Example 404, 5-(4-(cyclopropylmethoxy)-3-fluorophenyl)-2-methyl-4-(4-(2-methyl-4-(trifluoromethyl)-1H-imidazol-1-yl)-3′-(methylsulfonyl)biphenyl-3-yl)oxazole]"
68,59,"Cc1nc(-c2cc(-c3cc(F)c(CO)c(S(C)(=O)=O)c3)ccc2-n2cc(C(F)(F)F)nc2C)c(-c2ccc(OCC3CC3)c(F)c2)o1 [Example 405, (3′-(5-(4-(cyclopropylmethoxy)-3-fluorophenyl)-2-methyloxazol-4-yl)-3-fluoro-4′-(2-methyl-4-(trifluoromethyl)-1H-imidazol-1-yl)-5-(methylsulfonyl)biphenyl-4-yl)methanol]"
55,79,"Cc1nc(-c2cc(-c3cccc(S(C)(=O)=O)c3)ccc2-n2cc(C(F)(F)F)nc2C)c(-c2ccc(OC(F)F)c(Cl)c2)o1 [Example 398, 5-(3-chloro-4-(difluoromethoxy)phenyl)-2-methyl-4-(4-(2-methyl-4-(trifluoromethyl)-1H-imidazol-1-yl)-3′-(methylsulfonyl)biphenyl-3-yl)oxazole]"
25,63,"Cc1nc(-c2cc(-c3cc(F)c(CO)c(S(C)(=O)=O)c3)ccc2-n2cc(C(F)(F)F)nc2C)c(-c2ccc(OC(F)F)cc2Cl)o1 [Example 397, (3′-(5-(2-chloro-4-(difluoromethoxy)phenyl)-2-methyloxazol-4-yl)-3-fluoro-4′-(2-methyl-4-(trifluoromethyl)-1H-imidazol-1-yl)-5-(methylsulfonyl)biphenyl-4-yl)methanol]"
